Measured values as given in ChEMBL document CHEMBL2062415, “Steroids from Commiphora mukul display antiproliferative effect against human prostate cancer PC3 cells via induction of apoptosis” (Bioorg Med Chem Lett, 2012).
Activity calls are given as the source filed them. The calls are words filed in the database; no cut-off is given here.

How the values were obtained:
DU-145 [1] = experiment: Induction of apoptosis in human DU145 cells assessed as accumulation at S phase at 10 uM after 48 hrs by propidium iodide staining-based flow cytometric analysis (reference value: 11.48%); type: functional
K562 [2] = experiment: Induction of apoptosis in human K562 cells assessed as necrotic cells at 10 uM after 48 hrs by annexinV/propidium iodide staining-based FITC analysis (reference value: 1.19%); type: functional
DU-145 [3] = experiment: Induction of apoptosis in human DU145 cells assessed as accumulation at G2/M phase at 20 uM after 48 hrs by propidium iodide staining-based flow cytometric analysis (reference value: 16.14%); type: functional
PC-3 [4] = experiment: Induction of apoptosis in human PC3 cells assessed as early apoptotic cells at 20 uM after 48 hrs by annexinV/propidium iodide staining-based FITC analysis relative to control; type: functional
MCF7 [5] = experiment: Induction of apoptosis in human MCF7 cells assessed as necrotic cells at 5 uM after 48 hrs by annexinV/propidium iodide staining-based FITC analysis (reference value: 8.28%); type: functional
PC-3 [6] = experiment: Inhibition of cyclin A protein expression in human PC3 cells at 20 uM after 48 hrs by Western blot analysis; type: functional, cell-based
PC-3 [7] = experiment: Cell cycle arrest in human PC3 cells assessed as accumulation at G0/G1 phase at 5 uM after 48 hrs by propidium iodide staining-based flow cytometric analysis relative to control; type: functional
MCF7 [8] = experiment: Cytotoxicity against human MCF7 cells after 24 hrs by MTT assay; type: functional, cell-based; details: MCF7, 24 h
PC-3 [9] = experiment: Cell cycle arrest in human PC3 cells assessed as accumulation at G2/M phase at 20 uM after 48 hrs by propidium iodide staining-based flow cytometric analysis relative to control; type: functional
DU-145 [10] = experiment: Induction of apoptosis in human DU145 cells assessed as accumulation at G0/G1 phase at 40 uM after 48 hrs by propidium iodide staining-based flow cytometric analysis (reference value: 72.11%); type: functional
PC-3 [11] = experiment: Induction of apoptosis in human PC3 cells assessed as necrotic cells at 10 uM after 48 hrs by annexinV/propidium iodide staining-based FITC analysis relative to control; type: functional
DU-145 [12] = experiment: Induction of apoptosis in human DU145 cells assessed as accumulation at G0/G1 phase at 10 uM after 48 hrs by propidium iodide staining-based flow cytometric analysis (reference value: 72.11%); type: functional
DU-145 [13] = experiment: Induction of apoptosis in human DU145 cells assessed as late apoptotic cells at 10 uM after 48 hrs by annexinV/propidium iodide staining-based FITC analysis (reference value: 2.78%); type: functional
PC-3 [14] = experiment: Cell cycle arrest in human PC3 cells assessed as accumulation at S phase at 20 uM after 48 hrs by propidium iodide staining-based flow cytometric analysis relative to control; type: functional
K562 [15] = experiment: Induction of apoptosis in human K562 cells assessed as accumulation at S phase at 1 uM after 48 hrs by propidium iodide staining-based flow cytometric analysis (reference value: 45.67%); type: functional
PC-3 [16] = experiment: Cytotoxicity against human PC3 cells assessed as cell viability at 10 uM after 24 hrs by MTT assay; type: functional; details: PC-3, 24 h, read-out: Activity
PC-3 [17] = experiment: Induction of apoptosis in human PC3 cells assessed as late apoptotic cells at 10 uM after 48 hrs by annexinV/propidium iodide staining-based FITC analysis relative to control; type: functional
PC-3 [18] = experiment: Cell cycle arrest in human PC3 cells assessed as accumulation at G2/M phase after 48 hrs by propidium iodide staining-based flow cytometric analysis; type: functional
DU-145 [19] = experiment: Induction of apoptosis in human DU145 cells assessed as accumulation at G2/M phase at 10 uM after 48 hrs by propidium iodide staining-based flow cytometric analysis (reference value: 16.14%); type: functional
PC-3 [20] = experiment: Cell cycle arrest in human PC3 cells assessed as accumulation at G0/G1 phase at 20 uM after 48 hrs by propidium iodide staining-based flow cytometric analysis relative to control; type: functional
DU-145 [21] = experiment: Induction of apoptosis in human DU145 cells assessed as accumulation at G0/G1 phase at 20 uM after 48 hrs by propidium iodide staining-based flow cytometric analysis (reference value: 72.11%); type: functional
MCF7 [22] = experiment: Induction of apoptosis in human MCF7 cells assessed as necrotic cells at 20 uM after 48 hrs by annexinV/propidium iodide staining-based FITC analysis (reference value: 8.28%); type: functional
PC-3 [23] = experiment: Inhibition of cyclin B1 protein expression in human PC3 cells at 20 uM after 48 hrs by Western blot analysis; type: functional, cell-based
DU-145 [24] = experiment: Induction of apoptosis in human DU145 cells assessed as early apoptotic cells at 20 uM after 48 hrs by annexinV/propidium iodide staining-based FITC analysis (reference value: 2.34%); type: functional
MCF7 [25] = experiment: Induction of apoptosis in human MCF7 cells assessed as accumulation at G0/G1 phase at 20 uM after 48 hrs by propidium iodide staining-based flow cytometric analysis (reference value: 67.46%); type: functional
PC-3 [26] = experiment: Induction of apoptosis in human PC3 cells assessed as early apoptotic cells at 10 uM after 48 hrs by annexinV/propidium iodide staining-based FITC analysis relative to control; type: functional
DU-145 [27] = experiment: Induction of apoptosis in human DU145 cells assessed as necrotic cells at 40 uM after 48 hrs by annexinV/propidium iodide staining-based FITC analysis (reference value: 0.35%); type: functional
K562 [28] = experiment: Induction of apoptosis in human K562 cells assessed as necrotic cells at 1 uM after 48 hrs by annexinV/propidium iodide staining-based FITC analysis (reference value: 1.19%); type: functional
MCF7 [29] = experiment: Induction of apoptosis in human MCF7 cells assessed as late apoptotic cells at 20 uM after 48 hrs by annexinV/propidium iodide staining-based FITC analysis (reference value: 3.57%); type: functional
PC-3 [30] = experiment: Decrease in Bcl-2 protein level in human PC3 cells at 5 uM after 48 hrs by Western blot analysis; type: functional, cell-based
PC-3 [31] = experiment: Induction of apoptosis in human PC3 cells assessed as increase in PARP cleavage product after 48 hrs by Western blot analysis; type: functional, cell-based
PC-3 [32] = experiment: Induction of apoptosis in human PC3 cells assessed as late apoptotic cells at 5 uM after 48 hrs by annexinV/propidium iodide staining-based FITC analysis relative to control; type: functional
DU-145 [33] = experiment: Cytotoxicity against human DU145 cells after 24 hrs by MTT assay; type: functional, cell-based; details: DU-145, 24 h
K562 [34] = experiment: Induction of apoptosis in human K562 cells assessed as late apoptotic cells at 5 uM after 48 hrs by annexinV/propidium iodide staining-based FITC analysis (reference value: 2.55%); type: functional
PC-3 [35] = experiment: Induction of apoptosis in human PC3 cells assessed as cleavage of caspase 3 at 5 to 20 uM after 48 hrs by Western blot analysis; type: functional, cell-based
DU-145 [36] = experiment: Induction of apoptosis in human DU145 cells assessed as accumulation at S phase at 20 uM after 48 hrs by propidium iodide staining-based flow cytometric analysis (reference value: 11.48%); type: functional
DU-145 [37] = experiment: Induction of apoptosis in human DU145 cells assessed as early apoptotic cells at 10 uM after 48 hrs by annexinV/propidium iodide staining-based FITC analysis (reference value: 2.34%); type: functional
DU-145 [38] = experiment: Induction of apoptosis in human DU145 cells assessed as late apoptotic cells at 40 uM after 48 hrs by annexinV/propidium iodide staining-based FITC analysis (reference value: 2.78%); type: functional

Compound: CC[C@H](/C=C/[C@@H](C)[C@H]1CC[C@H]2[C@H]3[C@H]([C@H](O)C[C@]12C)[C@@]1(C)CC[C@H](O)CC1=C[C@H]3O)C(C)C
- Activity (DU-145 [1]): 12.94%
- Activity (K562 [2]): 0.78%
- Activity (DU-145 [3]): 20.74%
- Activity (PC-3 [4]): 3.27%
- Activity (MCF7 [5]): 3.47%
- inhibition (PC-3 [6]): Active
- Activity (PC-3 [7]): 59%
- IC50 (MCF7 [8]): 9.04 µM
- Activity (PC-3 [9]): 29.84%
- Activity (DU-145 [10]): 46.47%
- Activity (PC-3 [11]): 2.09%
- Activity (DU-145 [12]): 65.66%
- Activity (DU-145 [13]): 2.48%
- Activity (PC-3 [14]): 14.34%
- Activity (K562 [15]): 45.77%
- viability at 10 µM (PC-3 [16]): 40%
- Activity (PC-3 [17]): 37.79%
- Activity (PC-3 [18]): Dose-dependent effect
- Activity (DU-145 [19]): 21.4%
- Activity (PC-3 [20]): 55.82%
- Activity (DU-145 [21]): 67.88%
- Activity (MCF7 [22]): 4.8%
- inhibition (PC-3 [23]): Active
- Activity (DU-145 [24]): 2.12%
- Activity (MCF7 [25]): 55.93%
- Activity (PC-3 [26]): 1.49%
- Activity (DU-145 [27]): 8.01%
- Activity (K562 [28]): 0.5%
- Activity (MCF7 [29]): 6.76%
- inhibition (PC-3 [30]): Active
- Activity (PC-3 [31]): Dose-dependent effect
- Activity (PC-3 [32]): 27.43%
- IC50 (DU-145 [33]): 16.6 µM
- Activity (K562 [34]): 1.91%
- Activity (PC-3 [35]): Active
- Activity (DU-145 [36]): 11.38%
- Activity (DU-145 [37]): 4.02%
- Activity (DU-145 [38]): 13.63%
